One data set concerns the target T1, UGT2B4 (Homo sapiens, UniProt P06133).
T1 sequence (P06133 24-528): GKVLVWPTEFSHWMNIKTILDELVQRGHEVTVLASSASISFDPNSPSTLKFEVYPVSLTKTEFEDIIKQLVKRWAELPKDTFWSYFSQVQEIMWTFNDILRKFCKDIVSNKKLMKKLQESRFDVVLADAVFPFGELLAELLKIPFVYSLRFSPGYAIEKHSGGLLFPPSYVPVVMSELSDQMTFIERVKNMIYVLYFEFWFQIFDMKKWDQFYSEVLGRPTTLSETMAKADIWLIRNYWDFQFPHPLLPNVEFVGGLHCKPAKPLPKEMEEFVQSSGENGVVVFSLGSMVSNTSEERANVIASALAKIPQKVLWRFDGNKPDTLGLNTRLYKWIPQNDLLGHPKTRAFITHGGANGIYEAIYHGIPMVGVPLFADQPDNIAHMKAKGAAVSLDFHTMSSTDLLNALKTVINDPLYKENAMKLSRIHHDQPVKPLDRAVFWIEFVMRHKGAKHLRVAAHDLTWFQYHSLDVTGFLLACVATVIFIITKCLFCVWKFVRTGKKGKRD
The data set is described as follows: Screening for aprepitant glucuronidation, UGT2B4 Supersomes. The data set is classed as in vitro ADME. Conditions: UGT2B4, 5 and 250 µM aprepitant.

The target of a further data set is T2, UGT2B17 (Homo sapiens, UniProt O75795).
T2 sequence (O75795 24-530): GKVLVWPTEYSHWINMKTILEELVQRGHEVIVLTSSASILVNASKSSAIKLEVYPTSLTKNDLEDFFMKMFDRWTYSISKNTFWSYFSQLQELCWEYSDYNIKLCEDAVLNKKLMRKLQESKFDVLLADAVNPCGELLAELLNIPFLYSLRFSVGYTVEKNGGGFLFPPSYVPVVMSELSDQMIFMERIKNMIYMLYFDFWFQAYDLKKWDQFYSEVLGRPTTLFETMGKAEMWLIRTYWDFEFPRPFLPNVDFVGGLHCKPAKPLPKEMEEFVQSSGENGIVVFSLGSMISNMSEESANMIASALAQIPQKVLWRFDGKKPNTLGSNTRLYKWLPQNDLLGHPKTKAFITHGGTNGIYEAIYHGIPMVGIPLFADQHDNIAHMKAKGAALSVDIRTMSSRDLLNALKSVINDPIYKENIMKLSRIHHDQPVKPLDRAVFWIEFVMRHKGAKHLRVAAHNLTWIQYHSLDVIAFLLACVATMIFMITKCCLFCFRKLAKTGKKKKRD
The data set can be described thus: Screening for aprepitant glucuronidation, UGT2B17 Supersomes. The data set is classed as in vitro ADME. Conditions: UGT2B17, 5 and 250 µM aprepitant.

A further data set relates to other UGTs. The data set can be described thus: Inhibition by aprepitant of other UGTs. The data set is classed as in vitro ADME, human. Conditions: 1 µM aprepitant, UGTs other than UGT2B7.
The nature of data set [1]: Aqueous solubility of aprepitant. It counts as physicochemical. Conditions: aqueous medium.
Data set [2] is described as follows: Calculated concentration of drug in the lumen of the gut. The arrangement: species or system human. Conditions: molar dose/250 mL.
For the next data set, the target named is T3, UGT1A4 (Homo sapiens, UniProt P22310).
T3 sequence (P22310 29-534): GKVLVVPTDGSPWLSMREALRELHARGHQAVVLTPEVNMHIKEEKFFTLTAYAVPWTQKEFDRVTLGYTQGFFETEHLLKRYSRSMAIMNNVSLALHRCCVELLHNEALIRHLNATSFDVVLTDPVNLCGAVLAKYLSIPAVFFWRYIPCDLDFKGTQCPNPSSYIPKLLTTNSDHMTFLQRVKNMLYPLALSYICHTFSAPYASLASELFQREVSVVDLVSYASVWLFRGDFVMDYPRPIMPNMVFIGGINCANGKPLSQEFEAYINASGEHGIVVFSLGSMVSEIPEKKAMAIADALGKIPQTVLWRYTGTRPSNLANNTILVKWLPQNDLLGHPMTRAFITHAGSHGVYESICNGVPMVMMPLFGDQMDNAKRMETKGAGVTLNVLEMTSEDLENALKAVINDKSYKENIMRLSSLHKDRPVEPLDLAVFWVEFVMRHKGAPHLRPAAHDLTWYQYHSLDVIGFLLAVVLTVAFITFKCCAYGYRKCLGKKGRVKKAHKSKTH
Conditions: pH 7.5; for velocity of AP-G formation: 60 min.

The target in another data set is T4, UGT1A8 (Homo sapiens, UniProt Q9HAW9).
T4 sequence (Q9HAW9 26-530): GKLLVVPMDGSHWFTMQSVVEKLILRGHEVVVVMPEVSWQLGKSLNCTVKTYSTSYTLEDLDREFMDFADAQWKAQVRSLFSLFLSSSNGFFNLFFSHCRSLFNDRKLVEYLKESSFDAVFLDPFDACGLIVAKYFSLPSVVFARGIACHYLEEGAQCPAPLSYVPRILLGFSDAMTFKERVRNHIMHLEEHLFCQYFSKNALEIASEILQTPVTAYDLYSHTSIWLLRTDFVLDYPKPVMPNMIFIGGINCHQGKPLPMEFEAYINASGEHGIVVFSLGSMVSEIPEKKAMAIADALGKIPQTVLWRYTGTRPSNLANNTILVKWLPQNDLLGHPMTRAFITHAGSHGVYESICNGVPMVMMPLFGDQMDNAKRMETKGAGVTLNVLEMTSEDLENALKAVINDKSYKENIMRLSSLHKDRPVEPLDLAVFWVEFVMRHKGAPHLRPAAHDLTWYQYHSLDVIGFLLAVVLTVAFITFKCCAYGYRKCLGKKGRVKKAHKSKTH

For data set [3] the following is noted: ref Merck 2003; cited from earlier work.
Another data set is described as follows: in vitro. Conditions: human, microsomes, pH 7.5.
Data set [4] deals with UGTs in human intestinal microsomes (HIM). The data set is described as follows: in vitro. Conditions: pH 7.5.

SMILES strings stand for the structures. Values after ≈ are worked out from the molar mass of the structure shown. Where two headings read alike, the source gives them in different places.

By solubility is commonly meant the dissolved amount per volume that the medium holds. Usually microsomal CLint stands for the capacity of the preparation to metabolise the compound, expressed as a volume cleared per time. A low value points to slow turnover. Broadly, the Km is the concentration of substrate that gives half-maximal velocity. In the case of `C[C@@H](O[C@H]1OCCN(Cc2n[nH]c(=O)[nH]2)[C@H]1c1ccc(F)cc1)c1cc(C(F)(F)F)cc(C(F)(F)F)c1` [aprepitant, Aprepitant], the AP-G formation result on UGT2B4 and at UGT2B17 was “not detected” each time. Also, the “inhibition of other UGTs” value in the data set on other UGTs is recorded as less than 10%. In data set [1], this compound displayed a solubility of roughly 250 µM (≈ 134 µg/mL). Moreover, the “luminal concentration (Igut)” value in data set [2] (40 mg oral capsule) is listed as 300 µM; in data set [2] (125 mg oral capsule), 936 µM. Also, the “velocity of AP-G formation” value on UGT1A4 (5 µM) was 124.6 ± 6.4 fmol/min/mg protein; on UGT1A4 (250 µM), 2,710 ± 157.2 fmol/min/mg protein; on UGT1A8 (human, 60 min, 250 µM, pH 7.5), 391 ± 10.6 fmol/min/mg protein. For the same compound, the CLint at UGT1A4 (recombinant enzyme) came out at 28 µl/min/µg protein; at UGT1A8 (human, recombinant enzyme, pH 7.5) it was 3.5 µl/min/µg protein. The Vmax on UGT1A8 (UGT1A8, mean ± SE) is 683 ± 69 fmol/min/mg protein. Besides, the “n (Hill coefficient)” value on UGT1A8 (UGT1A8, mean ± SE) was found to be 1.2 ± 0.1. Besides, the “mean absolute oral bioavailability” value in data set [3] is 60–65%. In “in vitro”, this compound had a microsomal CLint of 5600 µL/min/mg. The Km at 60 min in data set [4] worked out at 63 ± 5 µM.

These data come from PMC4844176 (Xenobiotica; the fate of foreign compounds in biological …, 2015).
